Results as given in patent publication US7498421B2, “Degradation fragments” (Medical Research Council, priority 2001, dated 2009).

How the values were obtained:
porcine carotid artery = assay: Oxygen consumption of porcine carotid artery rings (Clark oxygen electrode); details: concentration of 4-methyl-3-vinylmaleimide not determined
Description: Porcine carotid artery were collected from an abattoir within 30 minutes of death, rinsed and immersed in PSS at 4° C., and immediately transported to the laboratory. Arteries were then trimmed of excess connective tissue and adventitia to be stored in PSS at 4° C. until use. The PSS was changed every 12 hours and the vessels were kept for up to 4 days. The PSS contained the following: 118 mmol/L sodium chloride, 25 mmol/L sodium hydrogen carbonate, 5.76 mmol/L potassium chloride, 2.5 mmol/L calcium chloride, 1.2 mmol/L magnesium sulphate, 0.5 mmol/L monobasic sodium phosphate, and 11.1 mmol/L glucose. The solution was oxygenated by bubbling with 95% oxygen and 5% carbon dioxide to maintain a pH of 7.4.
The rate of the oxygen consumption was determined using a Hansatech Instruments (Norfolk, United Kingdom) Clark oxygen electrode. Carotid artery rings approximately 0.2 cm long were vigorously rubbed to remove the endothelial cells and were added to the water-jacketed chambers containing PSS at 37° C. The rates of oxygen consumption were measured before and after the addition of crude mixture of the BR oxidative degradation products (final concentration 1 mg/mL of PSS), CSFSAH (final dilution 1/30) or 4-methyl-3-vinylmaleimide (purified on HPLC, freeze-dried and then re-dissolved in PSS). […]

[1] = Light sensitivity of purified fractions (sunlight, HPLC / 1H NMR); assay type: physicochemical; details: sunlight for 90 min
Description: The chloroform extract was dissolved in 50% (v/v) aqueous and purified by HPLC. Experiments were conducted so as to exclude light from samples. Hypersil reversed-phase C18 (250×7 mm) or Spherisorb ODS (2) reversed-phase columns (250×4.6 mm) were equilibrated with 30% (v/v) aqueous acetonitrile at a flow rate pf 2 mL min^−1 and 1 mL min^−1, respectively. Elution was performed using 30% to 36% aqueous acetonitrile linear gradient at the same flow rates over 8 min. Fractions were monitored at 320 nm and collected manually. The fractions were freeze dried and stored at −80° C. for further analyses. Each fraction was re-dissolved in 50% (v/v) aqueous acetonitrile, re-injected and re-purified using the same conditions to remove impurities from other fractions. To investigate the light sensitivity of the compounds, purified fractions were exposed to sunlight for 90 min after dissolving 50% (v/v) aqueous and analysed by HLPC.

[2] = Heat stability judged by HPLC; details: 60° C. for 2 h
[3] = system: porcine carotid artery rings; assay: Isometric force measurement on porcine carotid artery rings
Description: Isometric force measurement were performed on porcine carotid artery rings to assess functional parameters during exposure to various compounds. The methods used were those used by J F Clark et al., J. Vasc. Res., 1995, 32. 24-30. KCl induced contraction is used as maximal isometric tension generation and results are reported as percentage of KCl maxima obtained for each carotid.

SMILES	stimulation of oxygen consumption (in words) (porcine carotid artery)	intensity of HPLC peaks after exposure to sunlight [1]	heat stability [2]	1H NMR analysis after sunlight exposure [1]	effect of pre-treatment on tension development induced by ox-BR and CSF-SAH [3]
C=CC1=C(C)C(=O)NC1=O [4-methyl-3-vinylmaleimide]	stimulated oxygen consumption	significantly decreased	relatively heat-stable	–	–
C=CC1=C(C)C(=O)NC1=CC(N)=O [Box A, 4-methyl-5-oxo-3-vinyl-(1,5-dihydropyrrol-2-ylidene)acetamide]	–	significantly decreased	–	degradation to a number of products	–
C=CC1=C(C)C(=CC(N)=O)NC1=O [Box B, 3-methyl-5-oxo-4-vinyl-(1,5-dihydropyrrol-2-ylidene)acetamide]	–	significantly decreased	–	degradation to a number of products	–
CC(CCc1ccc(O)cc1)NCCc1ccc(O)c(O)c1 (centres unmarked) [dobutamine]	–	–	–	–	abrogated
